Several values for one entry are separate records, joined by “and”; a condition that tells them apart may be missing. Equal values may be shown once. Read-outs that look alike come from different tables or passages of the source.
Columns and labels:
[1] = system: 518 clinically-separated Mycobacterium tuberculosis strains; details: cited from earlier work
[2] = system: clinically-separated Mycobacterium tuberculosis strains; format: cell-based
[3] = 518 clinically-separated strains
[4] = among 321 strains resistant to one or more first-line drugs

NCC[C@H](O)C(=O)N[C@@H]1C[C@H](N)[C@@H](O[C@H]2O[C@H](CN)[C@@H](O)[C@H](O)[C@H]2O)[C@H](O)[C@H]1O[C@H]1O[C@H](CO)[C@@H](O)[C@H](N)[C@H]1O [amikacin]
resistance rate of Mycobacterium tuberculosis [1, 3]: 15.83% | resistance rate of Mycobacterium tuberculosis [1, 4]: 25.55%

NNC(=O)c1ccncc1 [Isoniazid, isoniazid]
resistance rate of Mycobacterium tuberculosis [1, 3]: 53.67% | growth of bacterial colonies on drug-containing culture medium ([2]; isoniazid 0.2 μg/ml, Table 4, per clinical strain): 4+ (positive (4+) if the bacterial colonies closely grow on the slant face of the culture medium and account for ¾ or more of the area of the slant face) and 3+ (positive (3+) if the bacterial colonies closely grow on the slant face of the culture medium or are partially fused and account for ½ or more of the slant face and ¾ or less of the slant face)

capreomycin
resistance rate of Mycobacterium tuberculosis [1, 3]: 21.81% | resistance rate of Mycobacterium tuberculosis [1, 4]: 33.02%

CO[C@H]1/C=C/O[C@@]2(C)Oc3c(C)c(O)c4c(O)c(c(/C=N/N5CCN(C)CC5)c(O)c4c3C2=O)NC(=O)/C(C)=C\C=C\[C@H](C)[C@H](O)[C@@H](C)[C@@H](O)[C@@H](C)[C@H](OC(C)=O)[C@@H]1C [Rifampicin, rifampicin]
growth of bacterial colonies on drug-containing culture medium ([2]; rifampicin 50 μg/ml, Table 5, per clinical strain): 4+ (positive (4+) if the bacterial colonies closely grow on the slant face of the culture medium and account for ¾ or more of the area of the slant face) and 3+ (positive (3+) if the bacterial colonies closely grow on the slant face of the culture medium or are partially fused and account for ½ or more of the slant face and ¾ or less of the slant face) and 2+ (positive (2+) if the bacterial colonies dispersedly grow on the slant face of the culture medium and account for ¼ or more of the slant face and ½ or less of the slant face) | growth of bacterial colonies on drug-containing culture medium ([2]; rifampicin 50 μg/ml, Table 6, isoniazid- and rifampicin-resistant clinical strains): 4+ (positive (4+) if the bacterial colonies closely grow on the slant face of the culture medium and account for ¾ or more of the area of the slant face) and 3+ (positive (3+) if the bacterial colonies closely grow on the slant face of the culture medium or are partially fused and account for ½ or more of the slant face and ¾ or less of the slant face) and 2+ (positive (2+) if the bacterial colonies dispersedly grow on the slant face of the culture medium and account for ¼ or more of the slant face and ½ or less of the slant face)

carrimycin
number of strains sensitive to 1 μg/ml of carrimycin ([2]; 1 μg/ml): 54 strains | share of total effective bacteria sensitive to 1 μg/ml of carrimycin ([2]; 1 μg/ml): 31.39% | number of strains with activity superior to that of isoniazid and that of rifampicin ([2]; 20 μg/ml carrimycin vs 1 μg/ml isoniazid and 250 μg/ml rifampicin): 23 strains | number of strains with activity superior to that of isoniazid ([2]; 20 μg/ml carrimycin, isoniazid-resistant clinical strains): 37 strains | number of strains with activity superior to that of rifampicin ([2]; 20 μg/ml carrimycin, rifampicin-resistant clinical strains): 39 strains | total effective rate ([2]; 172 of 240 clinically-separated strains): 71.66% | share of effective strains with activity superior to isoniazid ([2]; of 172 effective strains): 21.5% | share of effective strains with activity superior to isoniazid and rifampicin ([2]; of 172 effective strains): 13.4% | share of effective strains with activity superior to rifampicin ([2]; of 172 effective strains): 22.7% | share of effective strains with sensitivity equivalent to H37Rv ([2]; of 172 effective strains): 53.48% | number of strains with sensitivity equivalent to that of quality control strains H37Rv ([2]; of 172 sensitive strains): 92 strains | number of strains with sensitivity obviously higher than that of quality control strains H37Rv ([2]; of 172 sensitive strains): 80 strains | number of strains sensitive to carrimycin ([2]; of 240 clinically-separated strains, 1 μg/ml or 20 μg/ml): 172 strains

[H]/N=C(/N)N[C@H]1[C@H](O)[C@@H](O)[C@H](O[C@@H]2O[C@@H](C)[C@](O)(C=O)[C@H]2O[C@@H]2O[C@@H](CO)[C@H](O)[C@@H](O)[C@@H]2NC)[C@@H](N/C(N)=N\[H])[C@@H]1O [streptomycin]
resistance rate of Mycobacterium tuberculosis [1, 3]: 45.95%
